# Results taken from patent US20250179017A1 (GUANGDONG NEWOPP BIOPHARMACEUTICALS CO., LTD., priority 2022, published 2025).
# Target: T1, human EP2 (PTGER2) (Homo sapiens, UniProt P43116)
# T1 construct: Cayman Chemical (Human EP2 Reporter Assay Kit)
# Assay: EP2 antagonist assay (HEK-293 CNG membrane potential cAMP assay / 293T SEAP reporter assay, PGE2-stimulated)
# Assay type: cell-based
# Conditions: EP2 antagonist activity; concentration for 50% inhibition of signal compared to DMSO
# Method in brief: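 Two formats. In a CRE-SEAP reporter assay, reverse-transfected 293T cells received compound with PGE2 (13 nM final) for 6-8 h, then luminescence was read. In the ACTOne CNG format, HEK-293 cells were preincubated with compound for 15 min at RT, stimulated with 5 nM PGE2 for 30 min, and read by membrane-potential dye fluorescence. IC50 was taken versus DMSO.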
# T1 sequence (P43116 whole entry): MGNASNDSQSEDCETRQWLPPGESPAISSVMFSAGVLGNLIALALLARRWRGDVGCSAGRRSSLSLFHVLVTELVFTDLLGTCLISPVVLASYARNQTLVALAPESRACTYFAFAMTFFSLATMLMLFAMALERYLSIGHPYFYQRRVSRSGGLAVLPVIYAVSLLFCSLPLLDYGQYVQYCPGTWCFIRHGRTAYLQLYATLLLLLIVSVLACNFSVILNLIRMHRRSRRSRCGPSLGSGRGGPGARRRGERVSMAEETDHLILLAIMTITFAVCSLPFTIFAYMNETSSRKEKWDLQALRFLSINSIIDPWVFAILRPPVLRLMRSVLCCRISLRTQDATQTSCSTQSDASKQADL
row,Compound,IC50 [nM]
1,"O=C(O)c1ccc(CNC(=O)c2ccc(Nc3ccc(Cl)c(F)c3)c3ccn(Cc4ccc(C(F)(F)F)cc4)c23)cc1 [Example 71, ((4-((4-chloro-3-fluorophenyl)amino)-1-(4-(trifluoromethyl)benzyl)-1H-indole-7-carboxamido)methyl)benzoic acid acid]",100 to 1000
2,"O=C(O)c1ccc(CNC(=O)c2ccc(Nc3cccc(F)c3)c3ccn(Cc4ccc(C(F)(F)F)cc4)c23)cc1 [Example 72, 4-((4-((3-fluorophenyl)amino)-1-(4-(trifluoromethyl)benzyl)-1H-indole-7-carboxamido)methyl)benzoic acid]",< 100
3,"O=C(O)c1ccc(CNC(=O)c2ccc(Nc3ccc(Cl)cc3)c3ccn(Cc4ccc(C(F)(F)F)cc4)c23)cc1 [Example 73, ((4-((4-chlorophenyl)amino)-1-(4-(trifluoromethyl)benzyl)-1H-indole-7-carboxamido)methyl)benzoic acid]",100 to 1000
4,"O=C(O)c1ccc(CNC(=O)c2cc(-c3cccc(Cl)c3)cc3ccn(Cc4ccc(C(F)(F)F)cc4)c23)cc1 [Example 75, 4-((5-(3-chlorophenyl)-1-(4-(trifluoromethyl)benzyl)-1H-indole-7-carboxamido)methyl)benzoic acid]",< 100
5,"N#Cc1cc(-c2cc(C(=O)NCc3ccc(C(=O)O)cc3)c3c(ccn3Cc3ccc(C(F)(F)F)cc3)c2)ccc1F [Example 79, 4-((5-(3-cyano-4-fluorophenyl)-1-(4-(trifluoromethyl)benzyl)-1H-indole-7-carboxamido)methyl)benzoic]",100 to 1000
6,"N#Cc1ccc(-c2cc(C(=O)NCc3ccc(C(=O)O)cc3)c3c(ccn3Cc3ccc(C(F)(F)F)cc3)c2)cc1 [Example 81, 4-((5-(4-cyanophenyl)-1-(4-(trifluoromethyl)benzyl)-1H-indole-7-carboxamido)methyl)benzoic acid]",< 100
7,"NC(=O)c1cccc(-c2cc(C(=O)NCc3ccc(C(=O)O)cc3)c3c(ccn3Cc3ccc(C(F)(F)F)cc3)c2)c1 [Example 82, 4-((5-(3-carbamoylphenyl)-1-(4-(trifluoromethyl)benzyl)-1H-indole-7-carboxamido)methyl)benzoic acid]",< 100
8,"NS(=O)(=O)c1cccc(-c2cc(C(=O)NCc3ccc(C(=O)O)cc3)c3c(ccn3Cc3ccc(C(F)(F)F)cc3)c2)c1 [Example 83, 4-((5-(3-sulfamoylphenyl)-1-(4-(trifluoromethyl)benzyl)-1H-indole-7-carboxamido)methyl)benzoic acid]",< 100
9,"CS(=O)(=O)c1cccc(-c2cc(C(=O)NCc3ccc(C(=O)O)cc3)c3c(ccn3Cc3ccc(C(F)(F)F)cc3)c2)c1 [Example 84, 4-((5-(3-(methylsulfonyl)phenyl)-1-(4-(trifluoromethyl)benzyl)-1H-indole-7-carboxamido)methyl)benzoic acid]",< 100
10,"O=C(O)c1ccc(CNC(=O)c2cc(-c3ccccc3O)cc3ccn(Cc4ccc(C(F)(F)F)cc4)c23)cc1 [Example 86, 4-((5-(2-hydroxyphenyl)-1-(4-(trifluoromethyl)benzyl)-1H-indole-7-carboxamido)methyl)benzoic acid]",< 100
11,"O=C(O)c1ccc(CNC(=O)c2cc(-c3cc(Cl)cc(Cl)c3)cc3ccn(Cc4ccc(C(F)(F)F)cc4)c23)cc1 [Example 88, 4-((5-(3,5-dichlorophenyl)-1-(4-(trifluoromethyl)benzyl)-1H-indole-7-carboxamido)methyl)benzoic acid]",100 to 1000
12,"O=C(O)c1ccc(CNC(=O)c2cc(-c3ccccc3C(F)(F)F)cc3ccn(Cc4ccc(C(F)(F)F)cc4)c23)cc1 [Example 89, 4-((1-(4-(trifluoromethyl)benzyl)-5-(2-(trifluoromethyl)phenyl)-1H-indole-7-carboxamido)methyl)benzoic acid]",100 to 1000
13,"O=C(O)c1ccc(CNC(=O)c2cc(-c3ccccc3Cl)cc3ccn(Cc4ccc(C(F)(F)F)cc4)c23)cc1 [Example 90, 4-((5-(2-chlorophenyl)-1-(4-(trifluoromethyl)benzyl)-1H-indole-7-carboxamido)methyl)benzoic acid]",< 100
14,"O=C(O)c1ccc(CNC(=O)c2cc(-c3ccc(Cl)c(F)c3)cc3ccn(Cc4ccc(C(F)(F)F)cc4)c23)cc1 [Example 91, 4-((5-(4-chloro-3-fluorophenyl)-1-(4-(trifluoromethyl)benzyl)-1H-indole-7-carboxamido)methyl)benzoic]",< 100
15,"Cc1ccccc1-c1cc(C(=O)NCc2ccc(C(=O)O)cc2)c2c(ccn2Cc2ccc(C(F)(F)F)cc2)c1 [Example 92, 4-((5-(o-tolyl)-1-(4-(trifluoromethyl)benzyl)-1H-indole-7-carboxamido)methyl)benzoic acid]",< 100
16,"Nc1ccccc1-c1cc(C(=O)NCc2ccc(C(=O)O)cc2)c2c(ccn2Cc2ccc(C(F)(F)F)cc2)c1 [Example 93, 4-((5-(2-aminophenyl)-1-(4-(trifluoromethyl)benzyl)-1H-indole-7-carboxamido)methyl)benzoic acid]",100 to 1000

row,Compound,IC50 [nM]
1,"O=C(O)c1ccc(CNC(=O)c2cc(-c3ccc(F)c(Cl)c3)cc3ccn(Cc4ccc(C(F)(F)F)cc4)c23)cc1 [Example 94, 4-((5-(3-chloro-4-fluorophenyl)-1-(4-(trifluoromethyl)benzyl)-1H-indole-7-carboxamido)methyl)benzoic]",< 100
2,"O=C(O)c1ccc(CNC(=O)c2cc(-c3cc(F)cc(Cl)c3)cc3ccn(Cc4ccc(C(F)(F)F)cc4)c23)cc1 [Example 95, 4-((5-(3-chloro-5-fluorophenyl)-1-(4-(trifluoromethyl)benzyl)-1H-indole-7-carboxamido)methyl)benzoic acid]",< 100
3,"N#Cc1cccc(-c2cc(C(=O)NCc3ccc(C(=O)O)cc3)c3c(cnn3Cc3ccc(C(F)(F)F)cc3)c2)c1 [Example 98, 4-((5-(3-cyanophenyl)-1-(4-(trifluoromethyl)benzyl)-1H-indazole-7-carboxamido)methyl)benzoic acid]",< 100
4,"O=C(O)c1ccc(CNC(=O)c2cc(-c3cc(F)cc(F)c3)cc3cnn(Cc4ccc(C(F)(F)F)cc4)c23)cc1 [Example 99, 4-((5-(3,5-difluorophenyl)-1-(4-(trifluoromethyl)benzyl)-1H-indazole-7-carboxamido)methyl)benzoic acid]",< 100
5,"O=C(O)c1ccc(CNC(=O)c2ccc(Nc3ccccc3)c3ccn(Cc4cccc(Cl)c4)c23)cc1 [Example 103, 4-((1-(3-chlorobenzyl)-4-(phenylamino)-1H-indole-7-carboxamido)methyl)benzoic acid]",100 to 1000
6,"O=C(O)c1ccc(CNC(=O)c2cc(-c3cccnc3)cc3ccn(Cc4cccc(Cl)c4)c23)cc1 [Example 104, 4-((1-(3-chlorobenzyl)-5-(pyridin-3-yl)-1H-indole-7-carboxamido)methyl)benzoic acid]",< 100
7,"O=C(O)c1ccc(CNC(=O)c2cc(-c3ccccc3)cc3ccn(Cc4cccc(Cl)c4)c23)cc1 [Example 105, 4-((1-(3-chlorobenzyl)-5-phenyl-1H-indole-7-carboxamido)methyl)benzoic acid]",< 100
8,"C[C@H](NC(=O)c1cc(-c2cccc(C#N)c2)cc2ccn(Cc3cccc(Cl)c3)c12)c1ccc(C(=O)O)cc1 [Example 108, (S)-4-(1-(1-(3-chlorobenzyl)-5-(3-cyanophenyl)-1H-indole-7-carboxamido)ethyl)benzoic acid]",< 100
9,"C[C@H](NC(=O)c1cc(-c2cccnc2)cc2ccn(Cc3cccc(Cl)c3)c12)c1ccc(C(=O)O)cc1 [Example 109, (S)-4-(1-(1-(3-chlorobenzyl)-5-(pyridin-3-yl)-1H-indole-7-carboxamido)ethyl)benzoic acid]",< 100
10,"C[C@H](NC(=O)c1cc(-c2ccccc2)cc2ccn(Cc3cccc(Cl)c3)c12)c1ccc(C(=O)O)cc1 [Example 110, (S)-4-(1-(1-(3-chlorobenzyl)-5-phenyl-1H-indole-7-carboxamido)ethyl)benzoic acid]",< 100
11,"C[C@H](NC(=O)c1cc(-c2cc(F)cc(F)c2)cc2ccn(Cc3cccc(Cl)c3)c12)c1ccc(C(=O)O)cc1 [Example 111, (S)-4-(1-(1-(3-chlorobenzyl)-5-(3,5-difluorophenyl)-1H-indole-7-carboxamido)ethyl)benzoic acid]",< 100
12,"CNC(=O)c1cccc(-c2cc(C(=O)NCc3ccc(C(=O)O)cc3)c3c(ccn3Cc3ccc(C(F)(F)F)cc3)c2)c1 [Example 116, 4-((5-(3-(methylcarbamoyl)phenyl)-1-(4-(trifluoromethyl)benzyl)-1H-indole-7-carboxamido)methyl)benzoic acid]",100 to 1000
13,"N#Cc1cccc(-c2cc(C(=O)NC34CC(CC(=O)O)(C3)C4)c3c(Sc4ccc(C(F)(F)F)cc4)c[nH]c3c2)c1 [Example 118, 2-(3-(6-(3-cyanophenyl)-3-((4-(trifluoromethyl)phenyl)thio)-1H-indole-4-carboxamido)bicyclo[1.1.1]pentan-1-yl)acetic acid]",100 to 1000
14,"N#Cc1cccc(-c2cc(C(=O)NCC34CC(C(=O)O)(C3)C4)c3c(Sc4ccc(C(F)(F)F)cc4)c[nH]c3c2)c1 [Example 119, 3-((6-(3-cyanophenyl)-3-((4-(trifluoromethyl)phenyl)thio)-1H-indole-4-carboxamido)methyl)bicyclo[1.1.1]pentane-1-carboxylic acid]",100 to 1000
15,"Cn1cc(Sc2ccc(C(F)(F)F)cc2)c2c(C(=O)NCc3ccc(C(=O)O)cc3)cc(-c3cccc(C#N)c3)cc21 [Example 120, 4-((6-(3-cyanophenyl)-1-methyl-3-((4-(trifluoromethyl)phenyl)thio)-1H-indole-4-carboxamido)methyl)benzoic acid]",100 to 1000
16,"Cn1cc(Sc2ccc(C(F)(F)F)cc2)c2c(C(=O)NCc3ccc(C(=O)O)cc3)cc(-c3cccc(C(N)=O)c3)cc21 [Example 121, 4-((6-(3-carbamoylphenyl)-1-methyl-3-((4-(trifluoromethyl)phenyl)thio)-1H-indole-4-carboxamido)methyl)benzoic acid]",100 to 1000
